# Values of other authors as cited in patent publication US8415299B2, “Methods for improved avian performance” (priority 2004, dated 2013).
# How the values were obtained:
# laying hens = details: cited from earlier work
# [1] = system: T4 and rT3 deiodination systems; details: rat liver homogenates; cited from earlier work
smiles,measurement,setting,value
I [iodide],Effect on egg production,"laying hens; 5,000 mg/kg diet",cessation of egg production
[Zn+2] [zinc],Action on progesterone production in F1 granulosa cells of the ovary,"laying hens; 2,800 mg/kg diet (Johnson and Brake 1992)",inhibitory action
same,Inhibition of T4 and rT3 deiodination,[1],potent inhibitor
CCNC(=O)[C@@H]1CCCN1C(=O)[C@H](CCCNC(=N)N)NC(=O)[C@H](CC(C)C)NC(=O)[C@@H](CC(C)C)NC(=O)[C@H](Cc1ccc(O)cc1)NC(=O)[C@H](CO)NC(=O)[C@H](Cc1c[nH]c2ccccc12)NC(=O)[C@H](Cc1c[nH]cn1)NC(=O)[C@@H]1CCC(=O)N1 [leuprolide acetate],Body weight,laying hens; single i.m. depot injection releasing 60 mcg/kg body weight per day for 30 days,no body weight loss
same,Egg production,"laying hens; single i.m. depot injection releasing 60 mcg/kg body weight per day for 30 days, second week (Burke and Attia 1994)",3.5%
C=C1C[C@H]2[C@@H]3C=C(C)C4=CC(=O)CC[C@]4(C)[C@H]3CC[C@]2(C)[C@@]1(OC(C)=O)C(C)=O [melengestrol acetate],Effect on reproductive system,laying hens; 4 or 8 mg per laying hen per day through the feed (Koch et al. 2004),reversible regression of the reproductive system
C[C@]12C[C@H](O)[C@H]3[C@@H](CCC4=CC(=O)CC[C@@]43C)[C@@H]1CC[C@@H]2C(=O)CO [corticosterone],Laying hens with cessation of egg production,laying hens; 20 to 40 mg/kg diet (Wolford et al. 1983),98%
